Tests used:
[1] = target: Cannabinoid receptor 1 (Homo sapiens) (UniProt P21554); experiment: CB1(HU)_AGON Eurofins SafetyScreen44 (BI); conditions: filed as agonist, Compound concentration 10.0 uM
[2] = target: T1, 5-hydroxytryptamine receptor 3A (Homo sapiens) (UniProt P46098); conditions: Compound concentration 10.0 uM
T1 sequence (whole entry): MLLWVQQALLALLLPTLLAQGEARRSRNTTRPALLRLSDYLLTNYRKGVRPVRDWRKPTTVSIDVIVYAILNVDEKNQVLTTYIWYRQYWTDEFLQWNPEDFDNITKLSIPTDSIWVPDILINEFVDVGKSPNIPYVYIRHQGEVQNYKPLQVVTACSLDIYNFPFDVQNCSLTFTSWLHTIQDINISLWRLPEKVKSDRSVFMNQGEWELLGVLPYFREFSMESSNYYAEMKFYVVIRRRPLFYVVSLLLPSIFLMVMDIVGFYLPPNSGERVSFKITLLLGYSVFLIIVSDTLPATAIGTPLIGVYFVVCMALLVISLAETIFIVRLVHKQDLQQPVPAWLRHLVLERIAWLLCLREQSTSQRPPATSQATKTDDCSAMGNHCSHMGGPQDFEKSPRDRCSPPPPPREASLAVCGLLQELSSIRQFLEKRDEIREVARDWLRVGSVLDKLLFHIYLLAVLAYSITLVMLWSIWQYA

[3] = target: 5-hydroxytryptamine receptor 1B (Rattus norvegicus) (UniProt P28564); experiment: 5HT1B/R Eurofins SafetyScreen44 (BI); conditions: Compound concentration 10.0 uM
[4] = target: Histamine H3 receptor (Homo sapiens, UniProt Q9Y5N1); conditions: Compound concentration 10.0 uM
[5] = target: T2, Alpha-1A adrenergic receptor (Homo sapiens) (UniProt P35348); conditions: Compound concentration 10.0 uM
T2 sequence (whole entry): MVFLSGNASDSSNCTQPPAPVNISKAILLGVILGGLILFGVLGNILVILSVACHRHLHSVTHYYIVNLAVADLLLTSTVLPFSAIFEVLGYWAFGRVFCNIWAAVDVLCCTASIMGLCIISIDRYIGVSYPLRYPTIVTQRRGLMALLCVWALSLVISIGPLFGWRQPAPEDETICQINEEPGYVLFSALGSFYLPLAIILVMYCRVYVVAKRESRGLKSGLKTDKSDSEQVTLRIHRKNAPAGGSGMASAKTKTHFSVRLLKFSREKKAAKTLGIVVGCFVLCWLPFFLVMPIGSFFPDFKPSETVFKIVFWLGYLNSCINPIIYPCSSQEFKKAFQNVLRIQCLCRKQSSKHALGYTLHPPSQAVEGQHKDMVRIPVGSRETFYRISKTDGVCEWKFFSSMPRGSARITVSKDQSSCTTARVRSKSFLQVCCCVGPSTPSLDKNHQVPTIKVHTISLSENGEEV

[6] = target: T3, Muscarinic acetylcholine receptor M2 (Homo sapiens) (UniProt P08172); conditions: Compound concentration 10.0 uM
T3 sequence (whole entry): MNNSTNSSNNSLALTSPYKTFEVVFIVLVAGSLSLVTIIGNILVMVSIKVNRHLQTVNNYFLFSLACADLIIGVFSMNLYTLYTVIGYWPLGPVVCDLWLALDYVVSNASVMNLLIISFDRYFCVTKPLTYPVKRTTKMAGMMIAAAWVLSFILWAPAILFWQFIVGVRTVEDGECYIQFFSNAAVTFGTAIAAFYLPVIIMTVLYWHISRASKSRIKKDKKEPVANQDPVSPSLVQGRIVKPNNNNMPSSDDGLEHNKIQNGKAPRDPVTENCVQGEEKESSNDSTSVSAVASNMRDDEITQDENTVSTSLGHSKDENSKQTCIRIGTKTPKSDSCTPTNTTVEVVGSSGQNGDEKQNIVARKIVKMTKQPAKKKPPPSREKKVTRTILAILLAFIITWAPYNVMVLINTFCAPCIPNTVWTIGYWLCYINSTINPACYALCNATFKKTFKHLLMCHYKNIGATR

[7] = target: Kappa-type opioid receptor (Rattus norvegicus) (UniProt P34975); experiment: KAPPA/R Eurofins SafetyScreen44 (BI); conditions: Compound concentration 10.0 uM
[8] = target: Sodium-dependent serotonin transporter (Homo sapiens) (UniProt P31645); conditions: Compound concentration 10.0 uM
Chain of Sodium-dependent serotonin transporter (Homo sapiens) (P31645 whole entry, looked up): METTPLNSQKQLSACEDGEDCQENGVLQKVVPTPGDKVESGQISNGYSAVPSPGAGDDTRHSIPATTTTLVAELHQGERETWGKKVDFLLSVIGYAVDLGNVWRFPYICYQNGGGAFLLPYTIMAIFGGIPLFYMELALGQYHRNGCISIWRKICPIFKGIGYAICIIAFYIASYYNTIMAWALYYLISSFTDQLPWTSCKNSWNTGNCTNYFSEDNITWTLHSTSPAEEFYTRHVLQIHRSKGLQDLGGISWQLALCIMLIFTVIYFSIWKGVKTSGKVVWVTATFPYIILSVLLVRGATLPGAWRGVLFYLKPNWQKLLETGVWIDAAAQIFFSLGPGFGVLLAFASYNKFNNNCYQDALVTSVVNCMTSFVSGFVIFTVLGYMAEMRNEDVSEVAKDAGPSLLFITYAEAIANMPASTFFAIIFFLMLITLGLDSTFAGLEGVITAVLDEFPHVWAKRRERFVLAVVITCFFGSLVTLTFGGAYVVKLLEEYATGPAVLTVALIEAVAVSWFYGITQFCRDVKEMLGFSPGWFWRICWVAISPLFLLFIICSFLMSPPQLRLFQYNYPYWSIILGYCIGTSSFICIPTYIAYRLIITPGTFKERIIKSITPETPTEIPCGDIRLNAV

[9] = target: Histamine H1 receptor (Homo sapiens) (UniProt P35367); conditions: Compound concentration 10.0 uM
Chain of Histamine H1 receptor (Homo sapiens) (P35367 whole entry): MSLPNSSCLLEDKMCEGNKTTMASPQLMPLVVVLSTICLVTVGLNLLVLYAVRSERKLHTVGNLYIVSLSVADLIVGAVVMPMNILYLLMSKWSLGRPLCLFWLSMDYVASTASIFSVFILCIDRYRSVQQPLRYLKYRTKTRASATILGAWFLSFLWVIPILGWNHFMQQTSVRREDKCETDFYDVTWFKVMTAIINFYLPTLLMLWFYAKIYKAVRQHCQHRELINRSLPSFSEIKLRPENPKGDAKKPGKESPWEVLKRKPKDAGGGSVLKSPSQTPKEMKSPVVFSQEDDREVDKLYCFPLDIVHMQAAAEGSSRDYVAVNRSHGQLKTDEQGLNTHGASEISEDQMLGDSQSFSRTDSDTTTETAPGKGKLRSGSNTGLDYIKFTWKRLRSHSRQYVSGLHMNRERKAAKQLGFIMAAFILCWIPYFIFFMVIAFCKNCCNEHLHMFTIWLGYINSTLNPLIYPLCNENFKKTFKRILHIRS

[10] = target: 5-hydroxytryptamine receptor 1D (Homo sapiens) (UniProt P28221); conditions: Compound concentration 10.0 uM
Chain of 5-hydroxytryptamine receptor 1D (Homo sapiens) (P28221 whole entry): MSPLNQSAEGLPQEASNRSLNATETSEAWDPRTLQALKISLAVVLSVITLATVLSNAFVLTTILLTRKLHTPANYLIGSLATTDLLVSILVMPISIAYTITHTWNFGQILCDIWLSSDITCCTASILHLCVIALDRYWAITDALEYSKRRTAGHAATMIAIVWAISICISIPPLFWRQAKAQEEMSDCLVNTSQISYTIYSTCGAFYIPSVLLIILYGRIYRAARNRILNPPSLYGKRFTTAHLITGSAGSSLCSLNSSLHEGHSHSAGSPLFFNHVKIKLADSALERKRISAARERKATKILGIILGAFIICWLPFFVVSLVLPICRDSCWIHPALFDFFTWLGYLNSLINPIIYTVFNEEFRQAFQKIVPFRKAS

[11] = target: T4, Muscarinic acetylcholine receptor M1 (Homo sapiens) (UniProt P11229); conditions: Compound concentration 10.0 uM
T4 sequence (whole entry): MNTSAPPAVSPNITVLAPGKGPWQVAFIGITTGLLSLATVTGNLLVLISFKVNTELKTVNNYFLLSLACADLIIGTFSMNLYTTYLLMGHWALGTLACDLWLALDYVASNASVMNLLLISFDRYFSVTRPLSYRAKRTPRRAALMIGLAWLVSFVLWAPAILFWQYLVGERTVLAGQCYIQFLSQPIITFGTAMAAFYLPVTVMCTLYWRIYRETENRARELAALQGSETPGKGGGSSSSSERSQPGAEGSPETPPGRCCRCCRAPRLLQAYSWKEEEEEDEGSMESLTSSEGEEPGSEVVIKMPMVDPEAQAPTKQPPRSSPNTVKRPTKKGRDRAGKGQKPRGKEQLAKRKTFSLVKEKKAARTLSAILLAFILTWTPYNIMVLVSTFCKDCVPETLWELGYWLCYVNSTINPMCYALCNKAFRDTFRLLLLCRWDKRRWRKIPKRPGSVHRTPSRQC

[12] = target: 5-hydroxytryptamine receptor 2B (Homo sapiens) (UniProt P41595); conditions: Compound concentration 10.0 uM
Chain of 5-hydroxytryptamine receptor 2B (Homo sapiens) (P41595 whole entry): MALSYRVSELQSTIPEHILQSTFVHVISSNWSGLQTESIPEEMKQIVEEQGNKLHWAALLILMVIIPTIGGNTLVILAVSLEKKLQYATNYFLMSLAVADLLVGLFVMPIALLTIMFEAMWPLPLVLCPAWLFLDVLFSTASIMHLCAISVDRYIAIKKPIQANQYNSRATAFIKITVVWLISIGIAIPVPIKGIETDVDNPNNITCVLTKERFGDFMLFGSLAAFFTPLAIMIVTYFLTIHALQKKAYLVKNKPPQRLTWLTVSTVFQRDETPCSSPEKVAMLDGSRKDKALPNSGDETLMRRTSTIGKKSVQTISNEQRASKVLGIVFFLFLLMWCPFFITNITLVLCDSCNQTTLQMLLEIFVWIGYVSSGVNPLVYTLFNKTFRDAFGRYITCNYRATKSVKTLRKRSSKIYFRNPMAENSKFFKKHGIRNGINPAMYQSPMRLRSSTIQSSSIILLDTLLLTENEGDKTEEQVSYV

[13] = target: Histamine H2 receptor (Homo sapiens) (UniProt P25021); conditions: Compound concentration 10.0 uM
Chain of Histamine H2 receptor (Homo sapiens) (P25021 whole entry): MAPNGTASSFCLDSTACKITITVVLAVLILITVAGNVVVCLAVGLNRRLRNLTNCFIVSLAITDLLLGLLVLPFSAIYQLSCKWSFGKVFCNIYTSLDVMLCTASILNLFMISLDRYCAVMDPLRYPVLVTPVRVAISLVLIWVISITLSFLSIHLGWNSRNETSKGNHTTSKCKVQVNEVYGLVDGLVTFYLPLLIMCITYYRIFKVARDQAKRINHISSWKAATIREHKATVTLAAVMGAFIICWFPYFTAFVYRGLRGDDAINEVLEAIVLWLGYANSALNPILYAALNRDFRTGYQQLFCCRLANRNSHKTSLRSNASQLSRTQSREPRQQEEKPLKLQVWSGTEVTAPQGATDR

[14] = target: Prostaglandin G/H synthase 1 (Homo sapiens) (UniProt P23219); experiment: COX1_HU Eurofins SafetyScreen44 (BI); conditions: Compound concentration 10.0 uM
[15] = target: Kappa-type opioid receptor (Homo sapiens) (UniProt P41145); conditions: Compound concentration 10.0 uM
Chain of Kappa-type opioid receptor (Homo sapiens) (P41145 whole entry): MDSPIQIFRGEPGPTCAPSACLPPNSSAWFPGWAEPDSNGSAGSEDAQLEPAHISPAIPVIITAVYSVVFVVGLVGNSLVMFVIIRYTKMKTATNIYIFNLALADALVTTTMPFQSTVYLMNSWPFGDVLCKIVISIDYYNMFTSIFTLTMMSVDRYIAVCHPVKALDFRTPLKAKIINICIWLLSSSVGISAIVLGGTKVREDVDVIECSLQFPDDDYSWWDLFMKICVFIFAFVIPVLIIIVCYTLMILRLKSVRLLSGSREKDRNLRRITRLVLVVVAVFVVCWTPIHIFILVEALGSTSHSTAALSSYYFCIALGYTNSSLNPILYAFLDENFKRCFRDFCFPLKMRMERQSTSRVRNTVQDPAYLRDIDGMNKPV

[16] = target: T3, Muscarinic acetylcholine receptor M2 (Homo sapiens); experiment: M2(H)AGON Eurofins SafetyScreen44 (BI); conditions: filed as agonist, Compound concentration 10.0 uM
[17] = target: Alpha-2C adrenergic receptor (Homo sapiens) (UniProt P18825); conditions: Compound concentration 10.0 uM
Chain of Alpha-2C adrenergic receptor (Homo sapiens) (P18825 whole entry): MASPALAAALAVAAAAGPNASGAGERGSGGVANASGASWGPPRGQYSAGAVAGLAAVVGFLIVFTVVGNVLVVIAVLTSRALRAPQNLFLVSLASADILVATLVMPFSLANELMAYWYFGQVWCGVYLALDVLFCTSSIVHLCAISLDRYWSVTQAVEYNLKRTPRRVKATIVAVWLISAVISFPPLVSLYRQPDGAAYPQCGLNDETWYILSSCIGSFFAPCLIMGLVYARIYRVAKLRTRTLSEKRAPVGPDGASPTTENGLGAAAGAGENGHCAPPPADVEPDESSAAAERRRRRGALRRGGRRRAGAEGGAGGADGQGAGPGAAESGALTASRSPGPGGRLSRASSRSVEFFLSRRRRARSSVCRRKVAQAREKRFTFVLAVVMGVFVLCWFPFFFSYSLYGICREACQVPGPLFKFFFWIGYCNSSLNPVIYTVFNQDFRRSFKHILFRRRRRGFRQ

[18] = target: Alpha-1B adrenergic receptor (Homo sapiens) (UniProt P35368); conditions: Compound concentration 10.0 uM
Chain of Alpha-1B adrenergic receptor (Homo sapiens) (P35368 whole entry): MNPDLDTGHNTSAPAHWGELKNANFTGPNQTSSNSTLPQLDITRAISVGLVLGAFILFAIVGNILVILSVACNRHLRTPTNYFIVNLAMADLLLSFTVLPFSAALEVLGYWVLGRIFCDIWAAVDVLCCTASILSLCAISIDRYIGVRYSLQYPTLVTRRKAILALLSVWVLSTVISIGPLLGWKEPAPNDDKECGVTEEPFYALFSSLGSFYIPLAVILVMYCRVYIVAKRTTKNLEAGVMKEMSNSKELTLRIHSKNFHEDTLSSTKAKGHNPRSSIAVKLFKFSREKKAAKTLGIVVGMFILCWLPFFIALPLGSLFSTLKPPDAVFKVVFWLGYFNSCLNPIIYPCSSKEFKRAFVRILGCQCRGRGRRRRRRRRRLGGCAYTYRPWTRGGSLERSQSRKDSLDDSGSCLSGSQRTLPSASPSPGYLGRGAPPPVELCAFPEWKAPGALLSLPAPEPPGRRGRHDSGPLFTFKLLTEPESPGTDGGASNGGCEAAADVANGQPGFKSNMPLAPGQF

[19] = organism: Rattus norvegicus; conditions: Compound concentration 10.0 uM
[20] = target: Sodium-dependent dopamine transporter (Homo sapiens) (UniProt Q01959); conditions: Compound concentration 10.0 uM
Chain of Sodium-dependent dopamine transporter (Homo sapiens) (Q01959 whole entry): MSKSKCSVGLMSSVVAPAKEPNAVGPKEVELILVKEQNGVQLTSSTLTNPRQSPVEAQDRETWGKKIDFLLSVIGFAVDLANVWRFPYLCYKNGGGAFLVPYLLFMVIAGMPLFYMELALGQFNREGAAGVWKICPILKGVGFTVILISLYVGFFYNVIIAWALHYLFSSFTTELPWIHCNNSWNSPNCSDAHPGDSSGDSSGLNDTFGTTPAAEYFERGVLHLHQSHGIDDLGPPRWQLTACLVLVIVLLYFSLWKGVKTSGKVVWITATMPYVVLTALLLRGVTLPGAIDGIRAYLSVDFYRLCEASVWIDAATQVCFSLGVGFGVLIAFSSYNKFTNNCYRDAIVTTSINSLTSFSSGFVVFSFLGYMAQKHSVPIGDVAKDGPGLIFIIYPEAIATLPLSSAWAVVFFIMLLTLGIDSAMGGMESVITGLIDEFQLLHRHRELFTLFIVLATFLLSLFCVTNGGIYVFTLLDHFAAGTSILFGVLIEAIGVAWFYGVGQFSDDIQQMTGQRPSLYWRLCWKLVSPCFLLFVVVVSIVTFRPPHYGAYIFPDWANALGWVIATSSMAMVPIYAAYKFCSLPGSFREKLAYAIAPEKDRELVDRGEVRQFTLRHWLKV

[21] = target: Muscarinic acetylcholine receptor M5 (Homo sapiens) (UniProt P08912); conditions: Compound concentration 10.0 uM
Chain of Muscarinic acetylcholine receptor M5 (Homo sapiens) (P08912 whole entry): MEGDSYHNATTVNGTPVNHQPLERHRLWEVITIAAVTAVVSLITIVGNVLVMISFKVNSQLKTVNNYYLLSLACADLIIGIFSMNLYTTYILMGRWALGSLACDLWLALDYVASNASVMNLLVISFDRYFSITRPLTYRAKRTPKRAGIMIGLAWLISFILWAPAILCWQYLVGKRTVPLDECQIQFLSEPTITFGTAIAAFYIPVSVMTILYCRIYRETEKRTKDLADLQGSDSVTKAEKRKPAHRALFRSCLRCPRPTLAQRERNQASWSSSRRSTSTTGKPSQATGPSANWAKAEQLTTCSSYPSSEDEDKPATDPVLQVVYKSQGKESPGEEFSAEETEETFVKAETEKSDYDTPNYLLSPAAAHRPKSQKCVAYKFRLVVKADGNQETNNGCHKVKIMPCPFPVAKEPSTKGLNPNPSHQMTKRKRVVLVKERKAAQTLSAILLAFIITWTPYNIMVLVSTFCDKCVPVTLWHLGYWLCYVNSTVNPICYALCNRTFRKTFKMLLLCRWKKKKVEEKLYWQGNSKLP

CCn1c(CNC(=O)c2ncc(C)nc2N)[n+](CC)c2ccc(C(=O)N(C)CN(C)C)cc21
inactive: residual activity [1] 111%

CCn1c(CNC(=O)c2nc(Cl)cnc2N)[n+](CC)c2ccc(C(=O)N(C)CCN(C)C)cc21
inactive: inhibition [2] 8.37% | residual activity [3] 113% | inhibition [5] -1.19% | inhibition [6] 44.6% | residual activity [7] 101% | inhibition [8] 8.39% | inhibition [9] -1.28% | inhibition [10] 22.8% | inhibition [11] 10.2% | inhibition [12] 7.03% | inhibition [13] 27.9% | residual activity [14] 106% | inhibition [15] 25.3% | residual activity [16] 85.2% | inhibition [17] 0.47% | inhibition [18] 44.9% | inhibition [19] -1.51% | inhibition [20] 12.4% | inhibition [21] 18.7%
active: inhibition [4] 85.4%

Source: ChEMBL document CHEMBL5303762, “Data for DCP probe BI-8668” (2023)
